Assay [1] has as its target MAP kinase-interacting serine/threonine-protein kinase 2 (Homo sapiens, UniProt Q9HBH9). The note with it: at 10 µM.
The target in assay [2] is Ephrin type-A receptor 2 (Homo sapiens) (UniProt P29317). As to the kind of experiment: Selectivity interaction (Millipore kinase profiler) EUB0000124b EPHA2. The note with it: at 10 µM.
Assay [3] has as its target T1, Serine/threonine-protein kinase Nek10 (Homo sapiens) (UniProt Q6ZWH5).
T1 sequence (whole entry): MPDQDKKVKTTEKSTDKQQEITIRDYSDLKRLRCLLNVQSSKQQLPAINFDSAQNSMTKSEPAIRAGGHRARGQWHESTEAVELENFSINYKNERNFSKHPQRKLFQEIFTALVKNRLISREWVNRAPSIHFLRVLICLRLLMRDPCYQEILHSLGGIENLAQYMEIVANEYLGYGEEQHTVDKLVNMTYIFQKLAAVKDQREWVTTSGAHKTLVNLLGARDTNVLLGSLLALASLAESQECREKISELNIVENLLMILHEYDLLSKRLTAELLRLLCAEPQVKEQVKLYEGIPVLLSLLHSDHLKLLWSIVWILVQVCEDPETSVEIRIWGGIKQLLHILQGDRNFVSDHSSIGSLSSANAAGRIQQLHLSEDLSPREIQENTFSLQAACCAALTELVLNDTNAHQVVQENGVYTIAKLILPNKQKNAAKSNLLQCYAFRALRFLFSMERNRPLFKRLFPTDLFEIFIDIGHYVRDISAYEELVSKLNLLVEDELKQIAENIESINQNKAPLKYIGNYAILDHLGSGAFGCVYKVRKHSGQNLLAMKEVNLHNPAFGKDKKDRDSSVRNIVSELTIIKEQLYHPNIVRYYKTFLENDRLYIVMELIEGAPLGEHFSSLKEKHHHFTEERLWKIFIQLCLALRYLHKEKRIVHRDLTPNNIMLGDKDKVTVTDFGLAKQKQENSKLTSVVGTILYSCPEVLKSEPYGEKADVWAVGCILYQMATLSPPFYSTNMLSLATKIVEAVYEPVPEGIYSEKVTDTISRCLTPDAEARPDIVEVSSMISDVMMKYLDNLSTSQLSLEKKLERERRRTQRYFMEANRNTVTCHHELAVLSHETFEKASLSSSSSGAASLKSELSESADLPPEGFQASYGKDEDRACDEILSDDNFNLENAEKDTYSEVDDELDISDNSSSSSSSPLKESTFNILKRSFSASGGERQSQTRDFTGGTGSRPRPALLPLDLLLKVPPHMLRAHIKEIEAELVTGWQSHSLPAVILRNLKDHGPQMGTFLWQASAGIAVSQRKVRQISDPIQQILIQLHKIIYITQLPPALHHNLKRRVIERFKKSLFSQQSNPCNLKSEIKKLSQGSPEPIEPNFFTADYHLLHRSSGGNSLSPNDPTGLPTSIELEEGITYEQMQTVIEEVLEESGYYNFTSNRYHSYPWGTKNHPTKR
Nature of the assay: Selectivity interaction (KinomeScan (DiscoverX)) EUB0001049a NEK10. The note with it: at 1 µM.

The target of assay [4] is T2, Muscarinic acetylcholine receptor M1 (Homo sapiens) (UniProt P11229).
T2 sequence (whole entry): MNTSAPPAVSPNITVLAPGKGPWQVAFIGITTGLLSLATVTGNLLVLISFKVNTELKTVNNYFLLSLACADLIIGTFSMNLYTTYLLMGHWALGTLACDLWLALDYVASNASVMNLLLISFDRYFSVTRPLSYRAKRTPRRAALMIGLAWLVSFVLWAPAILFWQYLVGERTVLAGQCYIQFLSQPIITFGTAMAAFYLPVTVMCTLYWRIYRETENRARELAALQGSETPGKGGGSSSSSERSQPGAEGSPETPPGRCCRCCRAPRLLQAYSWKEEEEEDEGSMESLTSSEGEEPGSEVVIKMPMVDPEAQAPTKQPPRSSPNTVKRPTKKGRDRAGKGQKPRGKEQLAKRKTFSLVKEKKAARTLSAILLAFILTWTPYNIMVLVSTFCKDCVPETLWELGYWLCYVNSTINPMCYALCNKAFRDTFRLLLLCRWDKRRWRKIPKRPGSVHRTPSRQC
As to the kind of experiment: Selectivity interaction (Eurofins CEREP Diversity Profile (receptors and ion channels)) EUB0000279b CHRM1. Conditions: at 10 µM.

The target in assay [5] is Serine/threonine-protein kinase 32B (Homo sapiens) (UniProt Q9NY57). As to the kind of experiment: Selectivity interaction (KinomeScan (DiscoverX)) EUB0000607a STK32B. Conditions: at 10 µM.
Chain of Serine/threonine-protein kinase 32B (Homo sapiens) (Q9NY57 whole entry, canonical isoform): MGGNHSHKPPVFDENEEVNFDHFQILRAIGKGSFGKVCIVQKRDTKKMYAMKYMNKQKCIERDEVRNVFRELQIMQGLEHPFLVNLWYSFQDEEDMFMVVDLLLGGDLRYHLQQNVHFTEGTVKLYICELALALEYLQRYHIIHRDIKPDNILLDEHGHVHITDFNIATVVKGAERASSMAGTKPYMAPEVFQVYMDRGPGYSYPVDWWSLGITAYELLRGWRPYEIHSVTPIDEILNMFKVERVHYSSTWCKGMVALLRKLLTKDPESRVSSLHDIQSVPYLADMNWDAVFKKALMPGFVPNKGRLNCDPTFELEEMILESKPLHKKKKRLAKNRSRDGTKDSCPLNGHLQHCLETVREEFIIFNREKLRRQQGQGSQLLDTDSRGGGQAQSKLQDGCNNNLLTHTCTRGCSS
The target of assay [6] is Phosphorylase b kinase gamma catalytic chain, skeletal muscle/heart isoform (Homo sapiens) (UniProt Q16816). Nature of the assay: Selectivity interaction (KinomeScan (DiscoverX)) EUB0000595a PHKG1. Conditions: at 10 µM.
Chain of Phosphorylase b kinase gamma catalytic chain, skeletal muscle/heart isoform (Homo sapiens) (Q16816 whole entry, looked up, canonical isoform): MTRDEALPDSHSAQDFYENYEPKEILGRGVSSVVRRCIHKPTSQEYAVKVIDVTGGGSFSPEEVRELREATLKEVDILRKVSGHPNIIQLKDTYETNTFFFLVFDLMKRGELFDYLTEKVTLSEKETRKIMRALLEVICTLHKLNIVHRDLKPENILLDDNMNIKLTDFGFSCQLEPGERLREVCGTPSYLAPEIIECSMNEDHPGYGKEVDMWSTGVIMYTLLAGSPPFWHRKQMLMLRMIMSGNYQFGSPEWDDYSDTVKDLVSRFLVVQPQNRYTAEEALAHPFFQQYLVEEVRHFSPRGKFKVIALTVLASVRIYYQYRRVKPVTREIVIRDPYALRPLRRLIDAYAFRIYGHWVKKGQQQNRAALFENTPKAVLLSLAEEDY
Assay [7] concerns the target T3, Serine/threonine-protein kinase tousled-like 1 (Homo sapiens) (UniProt Q9UKI8).
T3 sequence (whole entry): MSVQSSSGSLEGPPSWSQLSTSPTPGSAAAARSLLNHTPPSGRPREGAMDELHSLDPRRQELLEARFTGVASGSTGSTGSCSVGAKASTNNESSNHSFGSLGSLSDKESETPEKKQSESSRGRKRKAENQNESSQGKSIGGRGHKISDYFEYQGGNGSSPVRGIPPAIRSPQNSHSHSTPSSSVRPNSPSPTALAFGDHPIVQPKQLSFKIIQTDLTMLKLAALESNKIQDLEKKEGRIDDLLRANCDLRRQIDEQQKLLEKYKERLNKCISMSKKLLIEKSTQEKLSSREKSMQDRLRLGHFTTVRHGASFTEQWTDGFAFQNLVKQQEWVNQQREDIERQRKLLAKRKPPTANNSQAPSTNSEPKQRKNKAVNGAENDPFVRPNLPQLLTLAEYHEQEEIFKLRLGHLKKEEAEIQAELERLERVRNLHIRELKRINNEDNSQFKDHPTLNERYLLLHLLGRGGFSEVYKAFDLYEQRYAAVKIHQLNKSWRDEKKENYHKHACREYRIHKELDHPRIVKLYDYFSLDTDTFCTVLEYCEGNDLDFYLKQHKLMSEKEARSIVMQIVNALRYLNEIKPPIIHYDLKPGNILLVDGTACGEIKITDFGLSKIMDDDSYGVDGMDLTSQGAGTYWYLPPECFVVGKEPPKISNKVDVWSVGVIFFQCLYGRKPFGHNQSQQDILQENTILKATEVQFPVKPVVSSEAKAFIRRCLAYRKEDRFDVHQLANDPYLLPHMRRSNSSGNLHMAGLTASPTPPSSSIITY
As to the kind of experiment: Selectivity interaction (KinomeScan (DiscoverX)) EUB0001619a TLK1. The note with it: at 1 µM.

The target in assay [8] is Ribosomal protein S6 kinase beta-1 (Homo sapiens, UniProt P23443). Nature of the assay: Selectivity interaction (KinomeScan (DiscoverX)) EUB0000618a RPS6KB1. The note with it: at 10 µM.
Chain of Ribosomal protein S6 kinase beta-1 (P23443 whole entry, looked up): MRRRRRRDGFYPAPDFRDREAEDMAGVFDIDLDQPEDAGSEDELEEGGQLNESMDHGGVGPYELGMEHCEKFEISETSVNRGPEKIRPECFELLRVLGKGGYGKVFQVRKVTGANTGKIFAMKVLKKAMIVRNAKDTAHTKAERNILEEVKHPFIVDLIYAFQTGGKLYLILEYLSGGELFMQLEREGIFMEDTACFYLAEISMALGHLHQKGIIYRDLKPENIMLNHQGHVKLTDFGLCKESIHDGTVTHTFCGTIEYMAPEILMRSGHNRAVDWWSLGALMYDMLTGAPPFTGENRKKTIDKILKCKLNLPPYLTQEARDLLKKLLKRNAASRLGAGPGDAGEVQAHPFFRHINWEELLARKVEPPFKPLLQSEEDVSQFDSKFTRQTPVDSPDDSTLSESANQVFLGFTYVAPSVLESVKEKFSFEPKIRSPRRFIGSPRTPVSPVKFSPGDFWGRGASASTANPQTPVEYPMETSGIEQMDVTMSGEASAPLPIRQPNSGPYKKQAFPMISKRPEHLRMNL

Chain of Ephrin type-A receptor 2 (Homo sapiens) (P29317 whole entry): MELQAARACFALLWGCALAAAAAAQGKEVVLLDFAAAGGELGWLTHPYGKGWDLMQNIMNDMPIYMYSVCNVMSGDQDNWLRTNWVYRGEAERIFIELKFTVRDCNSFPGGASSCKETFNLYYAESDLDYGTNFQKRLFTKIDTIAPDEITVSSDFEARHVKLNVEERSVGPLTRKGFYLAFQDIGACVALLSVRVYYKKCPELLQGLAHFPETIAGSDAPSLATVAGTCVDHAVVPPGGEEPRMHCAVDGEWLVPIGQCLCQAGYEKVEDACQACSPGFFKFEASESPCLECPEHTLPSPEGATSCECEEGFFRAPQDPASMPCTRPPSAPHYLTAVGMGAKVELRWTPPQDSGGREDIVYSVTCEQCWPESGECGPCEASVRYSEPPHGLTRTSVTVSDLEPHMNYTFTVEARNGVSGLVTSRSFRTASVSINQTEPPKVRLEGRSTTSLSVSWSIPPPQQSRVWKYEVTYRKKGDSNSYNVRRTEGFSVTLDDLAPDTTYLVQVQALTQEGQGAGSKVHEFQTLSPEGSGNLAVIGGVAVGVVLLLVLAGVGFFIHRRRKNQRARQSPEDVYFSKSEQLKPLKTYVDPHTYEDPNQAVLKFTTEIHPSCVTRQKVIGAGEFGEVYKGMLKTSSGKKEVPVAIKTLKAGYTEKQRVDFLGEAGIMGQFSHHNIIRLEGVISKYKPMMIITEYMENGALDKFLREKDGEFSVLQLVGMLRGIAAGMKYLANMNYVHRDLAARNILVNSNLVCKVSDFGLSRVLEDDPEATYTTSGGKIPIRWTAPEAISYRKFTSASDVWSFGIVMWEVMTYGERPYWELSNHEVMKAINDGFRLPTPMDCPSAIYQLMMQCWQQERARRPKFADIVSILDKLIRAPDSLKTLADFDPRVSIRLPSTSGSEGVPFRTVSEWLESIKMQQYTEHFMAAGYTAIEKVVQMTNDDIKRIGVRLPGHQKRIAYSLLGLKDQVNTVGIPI
Chain of MAP kinase-interacting serine/threonine-protein kinase 2 (Q9HBH9 whole entry, looked up): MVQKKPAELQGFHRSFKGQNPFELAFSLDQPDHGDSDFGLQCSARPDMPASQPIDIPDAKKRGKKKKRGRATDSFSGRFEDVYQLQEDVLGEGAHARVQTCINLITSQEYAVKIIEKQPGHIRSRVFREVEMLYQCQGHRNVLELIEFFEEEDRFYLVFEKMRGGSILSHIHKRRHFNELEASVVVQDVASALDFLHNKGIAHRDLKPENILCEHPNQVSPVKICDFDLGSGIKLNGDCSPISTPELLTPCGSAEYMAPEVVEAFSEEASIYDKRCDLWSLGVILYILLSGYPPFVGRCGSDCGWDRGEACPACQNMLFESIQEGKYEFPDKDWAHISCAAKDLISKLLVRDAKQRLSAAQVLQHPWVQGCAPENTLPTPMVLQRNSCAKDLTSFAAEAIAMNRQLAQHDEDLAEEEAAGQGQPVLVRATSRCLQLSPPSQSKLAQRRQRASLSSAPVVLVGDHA

Turning to `CCN(CC)CCCCNc1ncc2cc(-c3cc(OC)cc(OC)c3)c(NC(=O)NC(C)(C)C)nc2n1`, the % of control in assay [1] turned out to be 100%.
`CC(=O)Nc1cccc(-n2c(=O)n(C3CC3)c(=O)c3c(Nc4ccc(I)cc4F)n(C)c(=O)c(C)c32)c1` showed a % of control in assay [2] of 93%.
In assay [3], `COc1cc(Nc2nc(C)cc(-c3cnn4nc(OC)ccc34)n2)cc(C(F)(F)F)c1` came in with a % of control of 100%.
Turning to `CC(=O)c1cc(-c2ccccc2OCC2CC2)c2ncccn12`, the % of control in assay [4] came out at 115%.
For `CNC(=O)Nc1ccc(-c2nc(N3CC4CCC(C3)O4)c3cnn(C4CCC5(CC4)OCCO5)c3n2)cc1`, the % of control in assay [5] came out at 86%.
In turn, `COCC(=O)NC/C=C/c1ccc2ncnc(Nc3ccc(Oc4ccc(C)nc4)c(C)c3)c2c1` [CP-724714] displayed a % of control in assay [6] of 100%.
Regarding `N#Cc1cccc(-c2c[nH]c3ncnc(N4CCOCC4)c23)c1`, the % of control in assay [7] was 99%.
As for `O[C@H]1CC[C@H](Nc2ncc3nc(Nc4c(F)cc(F)cc4F)n([C@H]4CCOC4)c3n2)CC1`, the % of control in assay [8] worked out at 80%.

The values are drawn from ChEMBL document CHEMBL5465560, “Selectivity Literature for EUbOPEN Chemogenomic Library” (2024).
